Test results published in ChEMBL document CHEMBL3414520, “Synthesis, analgesic, anti-inflammatory and anti-ulcerogenic activities of certain novel Schiff's bases as fenamate isosteres” (Bioorg Med Chem Lett, 2015).

What was measured:
physchem = details: n-octanol/water
Description: n-Octanol-water partition coefficient, log P of the compound

Rattus norvegicus [1] = species on record: Rattus norvegicus; assay: animal or person; details: Wistar, po, read-out: INH
Rattus norvegicus [2] = species on record: Rattus norvegicus; assay: animal or person; details: Wistar, po, read-out: INH; remark: listed apart in the source
Rattus norvegicus [3] = species on record: Rattus norvegicus; details: in vivo, po, 10 mg/kg, 17 h
Mus musculus = species on record: Mus musculus; assay: animal or person; details: Swiss, po, 3 h, read-out: INH

| Compound | logP (physchem) | inhibition in vivo at 10 mg/kg (Rattus norvegicus [1]) [%] | inhibition in vivo at 10 mg/kg (Rattus norvegicus [2]) [%] | UI (Rattus norvegicus [3]) | inhibition in vivo at 10 mg/kg (Mus musculus) [%] |
| --- | --- | --- | --- | --- | --- |
| Cc1ccc(C(=O)Nc2ccccc2C(=O)N/N=C/c2ccccc2)cc1 | 4.61 | 15.2 | 15.9 |  |  |
| Cc1ccc(C(=O)Nc2ccccc2C(=O)N/N=C/c2ccc(O)cc2)cc1 | 4.14 | 19.5 | 23.3 |  |  |
| Cc1ccc(C(=O)Nc2ccccc2C(=O)N/N=C/c2ccc(O)c(O)c2)cc1 | 4.02 | 55.3 | 55.1 | 1.417 | 77.8 |
| COc1cc(/C=N/NC(=O)c2ccccc2NC(=O)c2ccc(C)cc2)ccc1O | 4.1 | 19.5 | 23.3 |  |  |
| Cc1ccc(C(=O)Nc2ccccc2C(=O)N/N=C/c2ccc(Cl)cc2Cl)cc1 | 6.12 | 0.35 | 1.06 |  |  |
| COc1ccc(/C=N/NC(=O)c2ccccc2NC(=O)c2ccc(C)cc2)cc1 | 4.66 | 19.3 | 22.6 |  |  |
| COc1cc(OC)c(OC)cc1/C=N/NC(=O)c1ccccc1NC(=O)c1ccc(C)cc1 | 4.23 | 62.4 | 62.2 | 1.75 | 46.2 |
| COc1cc(/C=N/NC(=O)c2ccccc2NC(=O)c2ccc(C)cc2)cc(OC)c1OC | 4.63 | 62.8 | 64.3 | 1.583 | 34.2 |
| COc1cc(OC)c(/C=N/NC(=O)c2ccccc2NC(=O)c2ccc(C)cc2)c(OC)c1 | 4.87 | 13.1 | 14.5 |  |  |
| Cc1ccc(C(=O)Nc2ccccc2C(=O)N/N=C/c2ccc(N(C)C)cc2)cc1 | 4.41 | 22.3 | 22.3 |  |  |
